By Aqueous Solubility is commonly meant the dissolved amount per volume that the medium holds.

The test system of data set [1] is human developmental and reproductive toxicity. To be noted: cited from earlier work.
For data set [2] the following is noted: cited from earlier work; for ADI: ref FSCJ, EFSA, SCF, JMPR as named in the cell; for MoS: existent consumer risk assessment for the cosmetic use scenario, ref SCCS / SCCP / SCCNFP.
For data set [3] the following is noted: Solubility pH 7; median; ref [5],[8]; cited from earlier work.
Data set [4] deals with developmental or reproductive toxicity in animal or human. To be noted: cited from earlier work.
Data set [5] in a line: renal clearance, Fup*GFR (PBK parameter). To be noted: method Fup*GFR.
Data set [6] in a line: Human in vivo PK data: concentration-dose ratio (CDR) and toxicokinetic variability factor (TKVF).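 Further: Literature-pooled human in vivo PK data, plasma, serum or cord blood concentrations per daily dose, weighted by study population size across non-pregnant, pregnant and fetal groups.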 Further details: 95% percentile (Conc-dose-ratio): unit not given here.
[7] abbreviates: evidence of developmental or reproductive toxicity in animal or human, irrespective of exposure/dose, ref Supplementary Data Sheet 1.
[8] abbreviates: Non-Pregnant population (reference).
Where [9] appears, read: Non-Pregnant population, TKVF95 = p95 / weighted mean concentration-dose ratio.
The mark [10] stands for this setting: Pregnant population (reference).
Setting [11] is: Foetus, oral, combined (tretinoin, retinyl palmitate, dietary retinoids).
The mark [12] stands for this setting: Non-Pregnant, dermal, formulation radiolabelled tretinoin.
The mark [13] stands for this setting: Non-Pregnant, oral, combined (tretinoin, retinyl palmitate, dietary retinoids).
[14] abbreviates: Pregnant, oral, combined (tretinoin, retinyl palmitate, dietary retinoids).
[15] abbreviates: Pregnant population, TKVF95 = p95 / weighted mean concentration-dose ratio.
Where [16] appears, read: Non-Pregnant, combined (oral+IV).

Like-named read-outs stand apart in the source and are kept apart here.

Consider `O=S(=O)(O)NC1CCCCC1` [Cyclamate], for which, in data set [1] (Dietary, 420 mg/daily, oral, ref Supplementary Data Sheet 1), the “Exposure risk (DART risk classification)” value is “Low Risk”. The ADI entry in data set [2] was “ADI set by SCF (7mg/kg/day)”. For the same compound, the “Aqueous Solubility” value in data set [3] was 84.5 mg/mL.
For `CCCCCCC(O)CO` (stereo not drawn) [1,2-Octanediol], in data set [4] (setting [7]), the “DART Hazard Call” value was “Non Toxic”. The “Renal Clearance” value in data set [5] turned out to be 5.129 L/h. The “Exposure risk (DART risk classification)” value in data set [1] (Cosmetic, 5% in body lotion, dermal, ref Supplementary Data Sheet 1) is listed as “Low Risk”.
Turning to `Cn1c(=O)c2[nH]cnc2n(C)c1=O` [Theophylline], the TKVF in data set [6] (female, human, in vivo) amounted to 1.73.
With `Cn1c(=O)c2c(ncn2C)n(C)c1=O` [Caffeine], the TKVF was found to be 2.42 in data set [6] (female, human, in vivo); 2.42 in data set [6] (female, human, in vivo, po); 2.84 in data set [6] (human, in vivo, po).
`C[n+]1ccc(-c2cc[n+](C)cc2)cc1` [Paraquat]: the “DART Hazard Call” value in data set [4] (setting [7]) is recorded as “Non Toxic”. For the same compound, the figures for the “CDR fold difference to non-pregnant” value in data set [6] (Fetus population), in data set [6] (setting [8]) and in data set [6] (Pregnant population) were 0.06, 1.00 and 0.05, respectively. For the same compound, the “CDR fold difference to pregnant” value is given as 1.15 in data set [6] (Fetus population) and 1.00 in data set [6] (setting [10]). Further, the “Fold Difference to non-pregnant” value is given as 0.056 in data set [6] (Foetus, oral); 1.00 in data set [6] (Non-Pregnant, oral); 0.05 in data set [6] (Pregnant, oral). Besides, the “Fold Difference to pregnant” value in data set [6] (Foetus, oral) is given as 1.15; in data set [6] (Pregnant, oral) it was 1.00. Further, the “Mean Conc-dose -ratio” value is on record as 0.000247 uM/(mg/day] in data set [6] (Foetus, oral); 0.0044 uM/(mg/day] in data set [6] (Non-Pregnant, oral); 0.000214 uM/(mg/day] in data set [6] (Pregnant, oral). The TKVF in data set [6] (setting [9]) came to 3.16; in data set [6] (Non-Pregnant, oral) it was 3.16. Moreover, in data set [6] (Non-Pregnant, oral), the “95% percentile (Conc-dose-ratio)” value was determined as 0.014. In addition, in data set [2], the ADI result is recorded as “ADI set by FSCJ (0.0045 mg/kg/day)”.
For the compound `COc1ccc(C(=O)c2ccccc2)c(O)c1` [2-Hydroxy-4-methoxybenzophenone], in data set [4] (setting [7]), the “DART Hazard Call” value is given as “Non Toxic”. Also, in data set [1] (Cosmetic, 6% in sunscreen, dermal, ref Supplementary Data Sheet 1), the “Exposure risk (DART risk classification)” value is reported as “Low Risk”. Besides, in data set [6] (Non-Pregnant, dermal), the “95% percentile (Conc-dose-ratio)” value is recorded as 0.000717, the “Mean Conc-dose -ratio” value is 0.00025 uM/(mg/day] and the TKVF was found to be 2.84. Moreover, in data set [2], the MoS result is “Used safely in cosmetic products. Existent consumer risk assessment from the SCCS. MoS 38”.
On to `CC1=C(/C=C/C(C)=C/C=C/C(C)=C/C(=O)O)C(C)(C)CCC1` [all-tr-Retinoic Acid], for which, in data set [6] (setting [11]), the “95% percentile (Conc-dose-ratio)” value is on record as 0.00556, the “Fold Difference to non-pregnant” value came out at 0.55, the “Fold Difference to pregnant” value amounted to 0.71 and the “Mean Conc-dose -ratio” value is on record as 0.005 uM/(mg/day]. Further, the TKVF in data set [6] (setting [11]) stood at 1.06. Further, in data set [6] (setting [12]), the “95% percentile (Conc-dose-ratio)” value was found to be 0.00249, the “Mean Conc-dose -ratio” value is reported as 0.0015 uM/(mg/day] and the TKVF is listed as 1.66. In data set [6] (setting [13]), the “95% percentile (Conc-dose-ratio)” value was 0.02, the “Fold Difference to non-pregnant” value worked out at 1.00, the “Mean Conc-dose -ratio” value is listed as 0.010 uM/(mg/day] and the TKVF turned out to be 2.14. In addition, in data set [6] (setting [14]), the “95% percentile (Conc-dose-ratio)” value was 0.0108, the “Fold Difference to non-pregnant” value worked out at 0.77, the “Fold Difference to pregnant” value worked out at 1.00 and the “Mean Conc-dose -ratio” value was 0.007 uM/(mg/day]. Besides, the TKVF in data set [6] (setting [14]) turned out to be 1.47.
As to `O=C(O)c1ccccc1O` [Salicylate], the TKVF in data set [6] (setting [9]) was found to be 1.96; in data set [6] (Non-Pregnant, dermal, formulation Sodium salicylate), 1.52; in data set [6] (Non-Pregnant, oral, formulation Acetyl salicylic acid), 1.96; in data set [6] (Non-Pregnant, oral, formulation Sodium salicylate), 1.06; in data set [6] (setting [15]), 2.34; in data set [6] (Pregnant, oral, formulation Acetyl salicylic acid), 2.34. Besides, the MoS result in data set [2] was “Used safely in cosmetic products. Existent consumer risk assessment from the SCCS. MoS >50”.
Take `C[C@@H]1CCO[C@H]2Cn3cc(C(=O)NCc4ccc(F)cc4F)c(=O)c(O)c3C(=O)N12` [Dolutegravir]: in data set [4] (setting [7]), the “DART Hazard Call” value is “Toxic”. Moreover, in data set [1] (Pharmaceutical, 50 mg/daily, oral, ref Supplementary Data Sheet 1), the “Exposure risk (DART risk classification)” value is recorded as “High Risk”. Also, the figures for the “CDR fold difference to non-pregnant” value in data set [6] (Fetus population), in data set [6] (setting [8]) and in data set [6] (Pregnant population) were 0.46, 1.00 and 0.70, respectively. Besides, the “CDR fold difference to pregnant” value turned out to be 0.65 in data set [6] (Fetus population) and 1.00 in data set [6] (setting [10]). Further, the TKVF in data set [6] (Fetus population, TKVF95 = p95 / weighted mean concentration-dose ratio) is on record as 1.40; in data set [6] (Foetus, oral), 1.40; in data set [6] (setting [9]), 1.87; in data set [6] (Non-Pregnant, oral), 1.87; in data set [6] (setting [15]) it was 2.64; in data set [6] (Pregnant, oral), 2.64. The “95% percentile (Conc-dose-ratio)” value was 0.11 in data set [6] (Foetus, oral); 0.33 in data set [6] (Non-Pregnant, oral); 0.33 in data set [6] (Pregnant, oral). In addition, the “Fold Difference to non-pregnant” value in data set [6] (Foetus, oral) came out at 0.46; in data set [6] (Non-Pregnant, oral), 1.00; in data set [6] (Pregnant, oral), 0.70. For the same compound, the “Fold Difference to pregnant” value came out at 0.65 in data set [6] (Foetus, oral) and 1.00 in data set [6] (Pregnant, oral). For the same compound, the “Mean Conc-dose -ratio” value in data set [6] (Foetus, oral) is 0.08 uM/(mg/day]; in data set [6] (Non-Pregnant, oral), 0.18 uM/(mg/day]; in data set [6] (Pregnant, oral), 0.12 uM/(mg/day].
On to `C[C@@H]1C[C@H]2[C@@H]3CCC4=CC(=O)C=C[C@]4(C)[C@@]3(F)[C@@H](O)C[C@]2(C)[C@@]1(O)C(=O)CO` [Dexamethasone], for which the “DART Hazard Call” value in data set [4] (setting [7]) is recorded as “Toxic”. Also, the “CDR fold difference to non-pregnant” value in data set [6] (female, human, in vivo) was 1.50; in data set [6] (human, in vivo) it was 1.00. For the same compound, the TKVF in data set [6] (female, human, in vivo) turned out to be 2.51; in data set [6] (human, in vivo), 1.99.
Consider `CCN(CC)C(=O)c1cccc(C)c1` [DEET], for which the “DART Hazard Call” value in data set [4] is recorded as “Uncertain”. Also, the “Exposure risk (DART risk classification)” value in data set [1] is listed as “Low Risk”. Also, in data set [6] (in vivo), the “95% percentile (Conc-dose-ratio)” value amounted to 0.0013, the “Mean Conc-dose -ratio” value is 0.00066 uM/(mg/day] and the TKVF is reported as 1.97.
Regarding `O=P1(N(CCCl)CCCl)NCCCO1` (stereo not drawn) [Cyclophosphamide], the “DART Hazard Call” value in data set [4] (setting [7]) is “Toxic”. In addition, in data set [1] (Pharmaceutical, 60 mg/daily, oral, ref Supplementary Data Sheet 1), the “Exposure risk (DART risk classification)” value is listed as “High Risk”. The “CDR fold difference to non-pregnant” value in data set [6] (setting [8]) stood at 1.00. Moreover, the TKVF in data set [6] (setting [9]) is on record as 3.15. In data set [6] (setting [16]), the “95% percentile (Conc-dose-ratio)” value came to 0.09, the “Fold Difference to non-pregnant” value came out at 1.00, the “Mean Conc-dose -ratio” value is on record as 0.030 uM/(mg/day] and the TKVF was 3.15. Besides, in data set [6] (Pregnant population), the “CDR fold difference to non-pregnant” value was 2.85. In addition, in data set [6] (Pregnant, IV), the “Fold Difference to non-pregnant” value was found to be 2.85 and the “Mean Conc-dose -ratio” value is recorded as 0.084 uM/(mg/day].
As for `CC/C(=C(/CC)c1ccc(O)cc1)c1ccc(O)cc1` [Diethylstilbestrol (DES), Diethylstilbestrol], the “DART Hazard Call” value in data set [4] (setting [7]) is given as “Toxic”. For the same compound, the “Exposure risk (DART risk classification)” value in data set [1] (Pharmaceutical, 0.5 mg/daily, oral, ref Supplementary Data Sheet 1) is reported as “High Risk”.

Source of the values: article PMC12256496, “An advancement in developmental and reproductive toxicity (DART) risk assessment: evaluation of a bioactivity and exposure-based NAM toolbox” (Frontiers in Toxicology, 2025).
